In patent US8008312B2, “CXCR4 antagonists for the treatment of HIV infection” (Emory University, priority 2005, dated 2011):
pIC50: −log10 of the molar value.

Biological target: T1, CXCR4 (Homo sapiens, UniProt P61073)
Test: SDF-1 stimulated Erk1/2 phosphorylation
Format: cell-based
Conditions: SDF-1 stimulation; data not shown
Description: CXCR4/SDF-1 interaction activates PI3K/Akt and Ras/Raf/MEK/Erk pathways in a Gas protein (PTX-sensitive)-dependent manner.

T1 sequence (P61073 whole entry): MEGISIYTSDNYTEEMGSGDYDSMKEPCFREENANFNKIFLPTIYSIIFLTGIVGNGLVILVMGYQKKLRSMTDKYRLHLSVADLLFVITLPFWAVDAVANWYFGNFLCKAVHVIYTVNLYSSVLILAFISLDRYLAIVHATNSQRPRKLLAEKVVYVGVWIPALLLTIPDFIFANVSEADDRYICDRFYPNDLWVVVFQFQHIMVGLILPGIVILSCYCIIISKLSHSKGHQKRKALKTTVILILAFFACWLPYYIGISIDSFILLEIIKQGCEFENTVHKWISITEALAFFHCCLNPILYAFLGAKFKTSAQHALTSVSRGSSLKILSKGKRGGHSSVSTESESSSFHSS

| Molecule | concentration attenuating Erk1/2 phosphorylation |
| --- | --- |
| C1=CC(CN2CCCNCCNCCCNCC2)CC=C1CN1CCCNCCNCCCNCC1 (stereo not drawn) [AMD3100, reference compound] | 100 nM |
| TN14003 [reference compound] | sub-nano molar concentration |

Biological target: T1, CXCR4
Test: SDF-1 stimulated phosphorylation of Akt in MDA-MB-231 cells
Format: cell-based
Conditions: 100 ng/ml SDF-1, 30 minutes; FIG. 2
Method: FIG. 2 is an image of a western blot showing phosphorylation of Akt. Incubating MDA-MB-231 cells with 100 ng/ml of SDF-1 for 30 min stimulated phosphorylation of Akt. This activation was blocked with TN14003 or AMD3100 in a dose-dependent manner.
CXCR4/SDF-1 interaction activates PI3K/Akt and Ras/Raf/MEK/Erk pathways in a Gas protein (PTX-sensitive)-dependent manner. Experiments were conducted to determine the effect of blocking CXCR4/SDF-1 interaction by either TN14003 or AMD3100 at different concentrations (0, 0.01, 0.1, 1, 10, 100, 1000 nM) on phosphorylations of Akt and Erk1/2 signaling. Incubating cells with 100 ng/ml of SDF-1 for 30 minutes activated Akt. […] However, the increase in Erk1/2 phosphorylation by SDF-1 was not significant as the increase in Akt phosphorylation.

| Molecule | concentration blocking Akt activation |
| --- | --- |
| C1=CC(CN2CCCNCCNCCCNCC2)CC=C1CN1CCCNCCNCCCNCC1 (stereo not drawn) [AMD3100, reference compound] | a few nano molar |
| TN14003 [reference compound] | sub-nano molar concentration |

Test system: NL4-3
Test: Phenoscreen viral entry inhibition assay, NL4-3
Format: cell-based, HIV
Conditions: Human immunodeficiency virus 1, NL43, read-out: Viral Entry Inhibition NL4-3
Method: (§1) A selected set of compounds were tested for their ability to inhibit the cellular entry of T-tropic HIV. The assay for this inhibition has been carried out on a contractural basis at Monogram Biosciences, Inc. using their well established Phenoscreen™ assay. Briefly, HIV strains of interest are tagged with a luciferase indicator gene to create an appropriate test vector. The test vector is amplified through transfection and the resulting virus is incubated in the presence of target host cells where intracellular florescence activity then becomes a measure of infection. Amplified virus is exposed to target host cells in the presence of a range of test drug concentrations to determine IC50 measurements of entry inhibition. A modification of this test has been further reapplied as a novel drug assay that has been used in partnership with a number of pharmaceutical companies to test the effectiveness of novel entry inhibitors that target specific chemokines. It can used to detect activity against T-tropic, M-tropic, and dual-tropic viruses and Monogram Biosciences has a large bank of over 10,000 different virus strains to ultimately asses the range of applicability of our CXCR4 antagonists. Certain compounds have been tested to establish efficacy in a number of viral strains.

| Molecule | pIC50 |
| --- | --- |
| C1=CC(CN2CCCNCCNCCCNCC2)CC=C1CN1CCCNCCNCCCNCC1 (stereo not drawn) [AMD3100, reference compound] | 8.10 |
| c1cnc(NCc2ccc(CNc3ncccn3)cc2)nc1 [WZ-40-MS] | < 4.82 |
| OCc1ccc(CNc2ncccn2)cc1 [WZ-41] | < 4.82 |
| c1ccc(NCc2cccc(CNc3ccccn3)c2)nc1 [WZ-48-S] | < 4.82 |
| Fc1ccccc1NCc1ccc(CNc2ccccc2F)cc1 [WZ-51] | ~4.92 |
| c1ccc(NCc2ccc(CNc3ncccn3)cc2)cc1 [WZ-67] | ~4.96 |
| COc1ccnc(NCc2ccc(CNc3nccc(OC)n3)cc2)n1 [WZ-72-S] | ~4.82 |
| COc1cccc(NCc2ccc(CNc3cccc(OC)c3)cc2)c1 [WZ-77] | ~4.85 |
| c1ccc(NCc2cccc(CNc3ccccc3)c2)cc1 [WZ-814-S] | ~4.96 |
| c1ccc(CNCc2ccc(CNCc3ccccc3)cc2)cc1 [WZ-8224] | 5.20 |
| CC(Nc1ccccc1)c1ccc(C(C)Nc2ccccc2)cc1 (stereo not drawn) [WZ-8225] | ~5.00 |
| Cc1cc(CNc2ccccc2)c(C)cc1CNc1ccccc1 [WZ-9103] | ~4.96 |

Same assay, conditions: NL4-3 strain; read-out: Viral Entry Inhibition NL4-3

| Molecule | pIC50 |
| --- | --- |
| TN14003 [reference compound] | 8.30 |

Test system: MT-4 cells
Test: not given
Conditions: cited from earlier work

| Molecule | concentration leading to 50% toxicity [µM] |
| --- | --- |
| TN14003 [reference compound] | 410 |

Test system: Vrs-2
Test: Phenoscreen viral entry inhibition assay, Vrs-2
Format: cell-based, HIV
Conditions: Human immunodeficiency virus 1, read-out: Viral Entry Inhibition Vrs-2
Method: as §1

| Molecule | pIC50 |
| --- | --- |
| C1=CC(CN2CCCNCCNCCCNCC2)CC=C1CN1CCCNCCNCCCNCC1 (stereo not drawn) [AMD3100, reference compound] | 7.82 |
| c1cnc(NCc2ccc(CNc3ncccn3)cc2)nc1 [WZ-40-MS] | ~5.00 |
| OCc1ccc(CNc2ncccn2)cc1 [WZ-41] | ~4.89 |
| c1ccc(NCc2cccc(CNc3ccccn3)c2)nc1 [WZ-48-S] | ~4.96 |
| Fc1ccccc1NCc1ccc(CNc2ccccc2F)cc1 [WZ-51] | ~5.00 |
| c1ccc(NCc2ccc(CNc3ncccn3)cc2)cc1 [WZ-67] | ~4.96 |
| COc1ccnc(NCc2ccc(CNc3nccc(OC)n3)cc2)n1 [WZ-72-S] | ~4.92 |
| COc1cccc(NCc2ccc(CNc3cccc(OC)c3)cc2)c1 [WZ-77] | ~4.96 |
| c1ccc(NCc2cccc(CNc3ccccc3)c2)cc1 [WZ-814-S] | ~4.96 |
| c1ccc(CNCc2ccc(CNCc3ccccc3)cc2)cc1 [WZ-8224] | 5.37 |
| CC(Nc1ccccc1)c1ccc(C(C)Nc2ccccc2)cc1 (stereo not drawn) [WZ-8225] | ~5.00 |
| Cc1cc(CNc2ccccc2)c(C)cc1CNc1ccccc1 [WZ-9103] | ~4.82 |

Test system: Vrs-1
Test: Phenoscreen viral entry inhibition assay, Vrs-1
Format: cell-based, HIV
Conditions: Human immunodeficiency virus 1, read-out: Viral Entry Inhibition Vrs-1
Method: as §1

| Molecule | pIC50 |
| --- | --- |
| C1=CC(CN2CCCNCCNCCCNCC2)CC=C1CN1CCCNCCNCCCNCC1 (stereo not drawn) [AMD3100, reference compound] | 7.89 |
| c1cnc(NCc2ccc(CNc3ncccn3)cc2)nc1 [WZ-40-MS] | < 4.82 |
| OCc1ccc(CNc2ncccn2)cc1 [WZ-41] | < 4.82 |
| c1ccc(NCc2cccc(CNc3ccccn3)c2)nc1 [WZ-48-S] | < 4.82 |
| Fc1ccccc1NCc1ccc(CNc2ccccc2F)cc1 [WZ-51] | ~5.00 |
| c1ccc(NCc2ccc(CNc3ncccn3)cc2)cc1 [WZ-67] | < 4.82 |
| COc1ccnc(NCc2ccc(CNc3nccc(OC)n3)cc2)n1 [WZ-72-S] | < 4.82 |
| COc1cccc(NCc2ccc(CNc3cccc(OC)c3)cc2)c1 [WZ-77] | < 4.82 |
| c1ccc(NCc2cccc(CNc3ccccc3)c2)cc1 [WZ-814-S] | ~4.96 |
| c1ccc(CNCc2ccc(CNCc3ccccc3)cc2)cc1 [WZ-8224] | 5.32 |
| CC(Nc1ccccc1)c1ccc(C(C)Nc2ccccc2)cc1 (stereo not drawn) [WZ-8225] | ~4.96 |
| Cc1cc(CNc2ccccc2)c(C)cc1CNc1ccccc1 [WZ-9103] | < 4.82 |

Same assay, conditions: Vrs-1 strain; read-out: Viral Entry Inhibition Vrs-1

| Molecule | pIC50 |
| --- | --- |
| TN14003 [reference compound] | 8.00 |

Biological target: T1, CXCR4
Test: CXCR4 protein levels after treating cells
Format: cell-based
Conditions: not given

| Molecule | effect on CXCR4 protein levels |
| --- | --- |
| C1=CC(CN2CCCNCCNCCCNCC2)CC=C1CN1CCCNCCNCCCNCC1 (stereo not drawn) [AMD3100, reference compound] | did not affect CXCR4 protein levels |
| TN14003 [reference compound] | did not affect CXCR4 protein levels |

Test system: HXB2
Test: Phenoscreen viral entry inhibition assay, HXB2
Format: cell-based, HIV
Conditions: HXB2 strain; read-out: Viral Entry Inhibition HXB2
Method: as §1

| Molecule | pIC50 |
| --- | --- |
| TN14003 [reference compound] | 8.00 |

Same assay, conditions: Human immunodeficiency virus 1, HXB2, read-out: Viral Entry Inhibition HXB2

| Molecule | pIC50 |
| --- | --- |
| C1=CC(CN2CCCNCCNCCCNCC2)CC=C1CN1CCCNCCNCCCNCC1 (stereo not drawn) [AMD3100, reference compound] | 7.89 |
| c1cnc(NCc2ccc(CNc3ncccn3)cc2)nc1 [WZ-40-MS] | < 4.82 |
| OCc1ccc(CNc2ncccn2)cc1 [WZ-41] | < 4.82 |
| c1ccc(NCc2cccc(CNc3ccccn3)c2)nc1 [WZ-48-S] | < 4.82 |
| Fc1ccccc1NCc1ccc(CNc2ccccc2F)cc1 [WZ-51] | < 4.82 |
| c1ccc(NCc2ccc(CNc3ncccn3)cc2)cc1 [WZ-67] | < 4.82 |
| COc1ccnc(NCc2ccc(CNc3nccc(OC)n3)cc2)n1 [WZ-72-S] | < 4.82 |
| COc1cccc(NCc2ccc(CNc3cccc(OC)c3)cc2)c1 [WZ-77] | < 4.82 |
| c1ccc(NCc2cccc(CNc3ccccc3)c2)cc1 [WZ-814-S] | ~4.82 |
| c1ccc(CNCc2ccc(CNCc3ccccc3)cc2)cc1 [WZ-8224] | 5.09 |
| CC(Nc1ccccc1)c1ccc(C(C)Nc2ccccc2)cc1 (stereo not drawn) [WZ-8225] | ~4.96 |
| Cc1cc(CNc2ccccc2)c(C)cc1CNc1ccccc1 [WZ-9103] | ~4.89 |

Test system: Vrs-3
Test: Phenoscreen viral entry inhibition assay, Vrs-3
Format: cell-based, HIV
Conditions: Human immunodeficiency virus 1, read-out: Viral Entry Inhibition Vrs-3
Method: as §1

| Molecule | pIC50 |
| --- | --- |
| C1=CC(CN2CCCNCCNCCCNCC2)CC=C1CN1CCCNCCNCCCNCC1 (stereo not drawn) [AMD3100, reference compound] | 7.37 |
| c1cnc(NCc2ccc(CNc3ncccn3)cc2)nc1 [WZ-40-MS] | < 4.82 |
| OCc1ccc(CNc2ncccn2)cc1 [WZ-41] | < 4.82 |
| c1ccc(NCc2cccc(CNc3ccccn3)c2)nc1 [WZ-48-S] | < 4.82 |
| Fc1ccccc1NCc1ccc(CNc2ccccc2F)cc1 [WZ-51] | ~5.00 |
| c1ccc(NCc2ccc(CNc3ncccn3)cc2)cc1 [WZ-67] | ~4.92 |
| COc1ccnc(NCc2ccc(CNc3nccc(OC)n3)cc2)n1 [WZ-72-S] | < 4.82 |
| COc1cccc(NCc2ccc(CNc3cccc(OC)c3)cc2)c1 [WZ-77] | < 4.82 |
| c1ccc(NCc2cccc(CNc3ccccc3)c2)cc1 [WZ-814-S] | ~4.96 |
| c1ccc(CNCc2ccc(CNCc3ccccc3)cc2)cc1 [WZ-8224] | 5.24 |
| CC(Nc1ccccc1)c1ccc(C(C)Nc2ccccc2)cc1 (stereo not drawn) [WZ-8225] | ~5.00 |
| Cc1cc(CNc2ccccc2)c(C)cc1CNc1ccccc1 [WZ-9103] | ~4.82 |

Same assay, conditions: Vrs-3 strain; read-out: Viral Entry Inhibition Vrs-3

| Molecule | pIC50 |
| --- | --- |
| TN14003 [reference compound] | 7.60 |

Test system: Dual
Test: Phenoscreen viral entry inhibition assay, Dual
Format: cell-based, HIV
Conditions: Human immunodeficiency virus 1, read-out: Viral Entry Inhibition Dual
Method: as §1

| Molecule | pIC50 |
| --- | --- |
| C1=CC(CN2CCCNCCNCCCNCC2)CC=C1CN1CCCNCCNCCCNCC1 (stereo not drawn) [AMD3100, reference compound] | 7.52 |
| c1cnc(NCc2ccc(CNc3ncccn3)cc2)nc1 [WZ-40-MS] | < 4.82 |
| OCc1ccc(CNc2ncccn2)cc1 [WZ-41] | < 4.82 |
| c1ccc(NCc2cccc(CNc3ccccn3)c2)nc1 [WZ-48-S] | < 4.82 |
| Fc1ccccc1NCc1ccc(CNc2ccccc2F)cc1 [WZ-51] | ~4.92 |
| c1ccc(NCc2ccc(CNc3ncccn3)cc2)cc1 [WZ-67] | < 4.82 |
| COc1ccnc(NCc2ccc(CNc3nccc(OC)n3)cc2)n1 [WZ-72-S] | < 4.82 |
| COc1cccc(NCc2ccc(CNc3cccc(OC)c3)cc2)c1 [WZ-77] | < 4.82 |
| c1ccc(NCc2cccc(CNc3ccccc3)c2)cc1 [WZ-814-S] | < 4.82 |
| c1ccc(CNCc2ccc(CNCc3ccccc3)cc2)cc1 [WZ-8224] | 5.20 |
| CC(Nc1ccccc1)c1ccc(C(C)Nc2ccccc2)cc1 (stereo not drawn) [WZ-8225] | < 4.82 |
| Cc1cc(CNc2ccccc2)c(C)cc1CNc1ccccc1 [WZ-9103] | < 4.82 |

Test system: SHIV
Test: Phenoscreen viral entry inhibition assay, SHIV
Format: cell-based
Conditions: not given
Method: as §1

| Molecule | pIC50 |
| --- | --- |
| C1=CC(CN2CCCNCCNCCCNCC2)CC=C1CN1CCCNCCNCCCNCC1 (stereo not drawn) [AMD3100, reference compound] | 7.89 |
| c1cnc(NCc2ccc(CNc3ncccn3)cc2)nc1 [WZ-40-MS] | ~4.92 |
| OCc1ccc(CNc2ncccn2)cc1 [WZ-41] | ~4.82 |
| c1ccc(NCc2cccc(CNc3ccccn3)c2)nc1 [WZ-48-S] | ~4.96 |
| Fc1ccccc1NCc1ccc(CNc2ccccc2F)cc1 [WZ-51] | 5.85 |
| c1ccc(NCc2ccc(CNc3ncccn3)cc2)cc1 [WZ-67] | ~5.00 |
| COc1ccnc(NCc2ccc(CNc3nccc(OC)n3)cc2)n1 [WZ-72-S] | 5.35 |
| COc1cccc(NCc2ccc(CNc3cccc(OC)c3)cc2)c1 [WZ-77] | 5.05 |
| c1ccc(NCc2cccc(CNc3ccccc3)c2)cc1 [WZ-814-S] | < 4.82 |
| c1ccc(CNCc2ccc(CNCc3ccccc3)cc2)cc1 [WZ-8224] | 5.77 |
| CC(Nc1ccccc1)c1ccc(C(C)Nc2ccccc2)cc1 (stereo not drawn) [WZ-8225] | ~5.00 |
| Cc1cc(CNc2ccccc2)c(C)cc1CNc1ccccc1 [WZ-9103] | 5.02 |

Same assay, conditions: SHIV

| Molecule | pIC50 |
| --- | --- |
| TN14003 [reference compound] | 8.15 |
